Test [1] relates to Tritrichomonas foetus. Kind of test: Tested for anti-trichomonal activity in Tritrichomonas foetus, expressed as % reduction in the severity of peritoneal cavity infection at the dose of 25 mg/kg.
Test [2] deals with Tritrichomonas foetus. Kind of test: Tested for anti-trichomonal activity in Tritrichomonas foetus, expressed as % reduction in the severity of peritoneal cavity infection at the dose of 12.50 mg/kg. Particulars: dose 12.5 mg/kg.
Test [3] has as its system Tritrichomonas foetus. The test is described as follows: Tested for anti-trichomonal activity in Tritrichomonas foetus, expressed as % reduction in the severity of peritoneal cavity infection at the dose of 50 mg/kg.

Molecules are shown by their SMILES.

`Cn1c(=O)ccc2c1nc1ccccc1[n+]2[O-]` came in with a Reduction with Tritrichomonas foetus [1] of 23%.

`COC(Cn1c(=N)ccc2c1nc1ccccc1[n+]2[O-])OC` displayed a Reduction in the test on Tritrichomonas foetus [1] of 25%.

Take `CCn1c(=N)ccc2nc3ccccc3nc21`: the Reduction in the test on Tritrichomonas foetus [1] worked out at 89%; in the test on Tritrichomonas foetus [2], 0%.

Consider `CCCn1c(=N)ccc2c1nc1ccccc1[n+]2[O-]`, for which the Reduction with Tritrichomonas foetus [3] was found to be 0%.

The molecule `C=CCn1c(=N)ccc2c1nc1ccccc1[n+]2[O-]` registered a Reduction in the test with Tritrichomonas foetus [1] of 38%.

Molecule `N=c1ccc2c(nc3ccccc3[n+]2[O-])n1CCO` displayed a Reduction with Tritrichomonas foetus [1] of 57%.

Regarding `N=c1ccc2c(nc3ccccc3[n+]2[O-])n1Cc1ccncc1`, the Reduction in the test on Tritrichomonas foetus [3] was found to be 95%; in the test on Tritrichomonas foetus [1], 81%; in the test with Tritrichomonas foetus [2], 18%.

The molecule `Cn1c(=O)ccc2nc3ccccc3nc21` displayed a Reduction in the test with Tritrichomonas foetus [1] of 18%.

Regarding `Cn1c(=N)ccc2nc3ccccc3nc21`, the Reduction with Tritrichomonas foetus [3] is 98%; in the test on Tritrichomonas foetus [1] it was 75%; with Tritrichomonas foetus [2] it was 34%.

For `N=c1ccc2c(nc3ccccc3[n+]2[O-])n1C1CCCCC1`, the Reduction in the test on Tritrichomonas foetus [1] was 96%; in the test with Tritrichomonas foetus [2], 21%.

Consider `N=c1ccc2c(nc3ccccc3[n+]2[O-])n1Cc1ccccc1`, for which, in the test on Tritrichomonas foetus [1], the Reduction is recorded as 19%.

As to `CCn1c(=N)ccc2c1nc1ccccc1[n+]2[O-]`, the results for the Reduction in the test on Tritrichomonas foetus [1] and with Tritrichomonas foetus [2] were 100% and 0%, respectively.

Take `COCCn1c(=N)ccc2c1nc1ccccc1[n+]2[O-]`: the figures for the Reduction with Tritrichomonas foetus [1] and in the test with Tritrichomonas foetus [2] were 96% and 0%, respectively.

As to `CCOCCn1c(=N)ccc2c1nc1ccccc1[n+]2[O-]`, the Reduction in the test with Tritrichomonas foetus [3] was 9%.

Consider `Cn1c(=N)ccc2c1nc1ccccc1[n+]2[O-]`, for which the Reduction with Tritrichomonas foetus [3] is 98%; in the test with Tritrichomonas foetus [1], 97%; in the test on Tritrichomonas foetus [2], 100%.

As for `N=c1ccc2nc3ccccc3nc2n1Cc1ccncc1`, the Reduction with Tritrichomonas foetus [3] stood at 15%.

Values taken from ChEMBL document CHEMBL1122197, “Pyridoquinoxaline N-oxides. 1. A new class of antitrichomonal agents” (1982).
